What follows are compounds tested on A375 cells (assay: Melanoma cell growth inhibition (Alamar Blue)). Conditions: Homo sapiens, A-375, incubation over 46 hours.
Assay type: cell-based
Method: A375 cells from a melanoma cell line were cultured in DMEM medium (GIBCO) supplemented with 10% fetal bovine serum. A375 cells at 10,000 cells/100µl were added to a 96 well plate which contained 1 µl/well of the test compounds (final concentration of 0.001 ~ 30µM). After incubation for over 46 hours, Alamar Blue reagent was added to the medium (10µl/well). Two hours after the addition, a ratio of fluorescent intensity at an excitation wavelength of 530 nm to that at an emission wavelength of 590 nm was measured to determine the IC50 of the test compounds in the same manner as in the above examples.

| IC50 | SMILES |
| --- | --- |
| < 1 µM | Cc1ccc(C#N)cc1S(=O)(=O)N(C)N=Cc1cnc2ccc(Br)cn12 [Compound 54, 3-({2-[(6-bromoimidazo[1,2-a]pyridin-3-yl)methylidene]-1-methylhydrazino}sulfonyl)-4-methylbenzonitrile] |
| < 1 µM | Cc1ccc(C#N)cc1S(=O)(=O)N(C)N=Cc1cnc2ccc(F)cn12 [Compound 95, 5-cyano-2'-[(6-fluoroimidazo[1,2-a]pyridin-3-yl)methylidene]-1',2-dimethylbenzenesulfonohydrazide] |
| < 1 µM | Cc1ccc(C#N)cc1S(=O)(=O)N(C)N=Cc1cnc2ccc(C#N)cn12 [Compound 96, 5-cyano-2'-[(6-cyanoimidazo[1,2-a]pyridin-3-yl)methylidene]-1',2-dimethylbenzenesulfonohydrazide] |
| < 1 µM | CN(N=Cc1cnc2ccc(Cl)cn12)S(=O)(=O)c1cc([N+](=O)[O-])ccc1N [Compound 59, 2-amino-2'-[(6-chloroimidazo[1,2-a]pyridin-3-yl)methylidene]-1'-methyl-5-nitrobenzenesulfonohydrazide] |
| < 1 µM | Cc1ccc([N+](=O)[O-])cc1S(=O)(=O)N(C)N=Cc1cnc2ccc(Cl)cn12 [Compound 88, 6-chloro-3-{[(methyl)(2-methyl-5-nitrobenzenesulfonyl)hydrazono]methyl}imidazo[1,2-a]pyridine] |
| < 1 µM | Cc1ccc([N+](=O)[O-])cc1S(=O)(=O)N(C)N=Cc1cnc2ccc(C#N)cn12 [Compound 93, 3-{[(methyl)(2-methyl-5-nitrobenzenesulfonyl)hydrazono]methyl}imidazo[1,2-a]pyridine-6-carbonitrile] |
| < 1 µM | Cc1ccc([N+](=O)[O-])cc1S(=O)(=O)N(C)N=Cc1cnc2ccc(Br)cn12 [Compound 43, 2'-[(6-bromoimidazo[1,2-a]pyridin-3-yl)methylidene]-1',2-dimethyl-5-nitrobenzenesulfonohydrazide] |
| < 1 µM | CN(C)c1ccc([N+](=O)[O-])cc1S(=O)(=O)N(C)N=Cc1cnc2ccc(Cl)cn12 [Compound 113, 2'-[(6-chloroimidazo[1,2-a]pyridin-3-yl)methylidene]-2-dimethylamino-1'-methyl-5-nitrobenzenesulfonohydrazide] |
| < 1 µM | Cc1ccc([N+](=O)[O-])cc1S(=O)(=O)N(C)N=Cc1cnc2ccc(F)cn12 [Compound 57, 2'-[(6-fluoroimidazo[1,2-a]pyridin-3-yl)methylidene]-1',2-dimethyl-5-nitrobenzenesulfonohydrazide] |
| < 1 µM | CN(N=Cc1cnc2ccc(Cl)cn12)S(=O)(=O)c1cc([N+](=O)[O-])ccc1OCC(F)(F)F [Compound 60, 2'-[(6-chloroimidazo[1,2-a]pyridin-3-yl)methylidene]-1'-methyl-5-nitro-2-(2,2,2-trifluoroethoxy)benzenesulfonohydrazide] |
| < 1 µM | Cc1ccc([N+](=O)[O-])cc1S(=O)(=O)n1ccc(-c2cnc3ccc(Br)cn23)n1 [Compound 30, 3-(6-bromoimidazo[1,2-a]pyridin-3-yl)-1H-pyrazol-1-yl 2-methyl-5-nitrophenyl sulfone] |

| SMILES | IC50 |
| --- | --- |
| Cc1ccc([N+](=O)[O-])cc1S(=O)(=O)n1ccc(-c2c(C)nc3ccc(Br)cn23)n1 [Compound 6, 3-(6-Bromo-2-methylimidazo[1,2-a]pyridin-3-yl)-1H-pyrazol-1-yl 2-methyl-5-nitrophenyl sulfone] | < 1 µM |
| Cc1ccc([N+](=O)[O-])cc1S(=O)(=O)N(CCN1CCOCC1)N=Cc1cnc2ccc(Br)cn12 [Compound 77, 6-bromo-3-{[(2-methyl-5-nitrobenzenesulfonyl)(2-morpholinoethyl)hydrazono]methyl}imidazo[1,2-a]pyridine] | < 1 µM |
| CN(N=Cc1cnc2ccc(Cl)cn12)S(=O)(=O)c1cc([N+](=O)[O-])ccc1-n1ccnc1 [Compound 112, 2'-[(6-chloroimidazo[1,2-a]pyridin-3-yl)methylidene]-2-(1H-imidazol-1-yl)-1'-methyl-5-nitrobenzenesulfonohydrazide] | < 1 µM |
| Cc1ccc([N+](=O)[O-])cc1S(=O)(=O)c1nc(-c2cnc3ccc(Cl)cn23)cs1 [Compound 65, 6-chloro-3-[2-(2-methyl-5-nitrobenzenesulfonyl)thiazol-4-yl]imidazo[1,2-a]pyridine] | < 1 µM |
| CCc1ccc([N+](=O)[O-])cc1S(=O)(=O)N(C)N=Cc1cnc2ccc(Br)cn12 [Compound 53, 2'-[(6-bromoimidazo[1,2-a]pyridin-3-yl)methylidene]-2-ethyl-1'-methyl-5-nitrobenzenesulfonohydrazide] | < 1 µM |

Same assay, conditions: incubation over 46 hours

| IC50 | SMILES |
| --- | --- |
| < 1 µM | Cc1ccc2ncc(C=NN(C)S(=O)(=O)c3cc([N+](=O)[O-])ccc3C)n2c1 [Compound 99, 1'2-dimethyl-2'-[(6-methylimidazo[1,2-a]pyridin-3-yl)methylidene]-5-nitrobenzenesulfonohydrazide] |

These compounds were tested on HCT116 cells (assay: Colon cancer cell growth inhibition (Alamar Blue)). Conditions: incubation over 72 hours, result in words.
Assay type: cell-based
Method: Test Example 2 Colon cancer cell growth inhibition
HCT116 cells from a colon cancer cell line were cultured in McCoy's 5A medium (GIBCO) supplemented with 10% fetal bovine serum. HCTI 16 cells were inoculated on a 96 well plate (5000 cells/well) followed by overnight incubation. The test compound diluted with the medium was added to the medium in a final concentration of 0.1 to 30µM (final DMSO concentration, 1%). After incubation for over 72 hours, Alamar Blue reagent was added to the medium. Two hours after the addition, a ratio of fluorescent intensity at an excitation wavelength of 530 nm to that at an emission wavelength of 590 nm was measured to determine the IC50.

| SMILES | cancer cell growth inhibition activity |
| --- | --- |
| Cc1ccc([N+](=O)[O-])cc1S(=O)(=O)n1ccc(-c2c(C)nc3ccc(Br)cn23)n1 [Compound 6, 3-(6-Bromo-2-methylimidazo[1,2-a]pyridin-3-yl)-1H-pyrazol-1-yl 2-methyl-5-nitrophenyl sulfone] | good cancer cell growth inhibition activity |

Reference: patent EP1277754B1, “IMIDAZOPYRIDINE DERIVATIVES” (YAMANOUCHI PHARMACEUTICAL CO. LTD., priority 2000, dated 2001)
